We go through 38 compounds from patent US20140155445A1, “Compounds and Methods for Treating Cancer and Diseases of the Central Nervous System” (Osta Biotechnologies Inc., priority 2007, published 2014).

In one test the target is T1, HO-1 (rat spleen) (Rattus norvegicus, UniProt P06762).
T1 construct: Spleen microsomes were used as a source of HO-1; from tissue; host or cells: spleen microsomal fraction of adult male Sprague-Dawley rats
T1 sequence (P06762 1-289): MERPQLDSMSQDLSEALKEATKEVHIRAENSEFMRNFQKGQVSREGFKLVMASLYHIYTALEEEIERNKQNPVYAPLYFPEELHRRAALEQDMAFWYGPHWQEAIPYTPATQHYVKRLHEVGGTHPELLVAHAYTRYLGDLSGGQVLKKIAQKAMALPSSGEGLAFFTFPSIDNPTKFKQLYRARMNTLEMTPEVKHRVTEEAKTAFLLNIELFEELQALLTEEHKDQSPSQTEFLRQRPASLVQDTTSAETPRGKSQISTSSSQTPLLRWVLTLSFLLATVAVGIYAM
The experiment in a line: HO enzymatic activity in rat spleen microsomal fraction (CO formed from methemalbumin, gas chromatography). Type of test: biochemical.

The next test has as its target T2, HO-2 (rat brain) (Rattus norvegicus, UniProt P23711).
T2 construct: brain microsomes were used as a source of HO-2; from tissue; host or cells: brain microsomal fraction of adult male Sprague-Dawley rats
T2 sequence (P23711 1-315): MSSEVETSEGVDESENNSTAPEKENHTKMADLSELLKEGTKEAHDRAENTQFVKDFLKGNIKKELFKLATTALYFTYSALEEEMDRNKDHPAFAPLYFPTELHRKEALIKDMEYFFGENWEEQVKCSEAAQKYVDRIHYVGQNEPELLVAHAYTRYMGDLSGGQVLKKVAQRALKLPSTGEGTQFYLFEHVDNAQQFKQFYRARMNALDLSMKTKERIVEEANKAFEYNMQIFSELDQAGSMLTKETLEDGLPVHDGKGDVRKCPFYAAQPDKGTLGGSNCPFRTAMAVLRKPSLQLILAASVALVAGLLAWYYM
The experiment in a line: HO enzymatic activity in rat brain microsomal fraction (CO formed from methemalbumin, gas chromatography). It counts as biochemical.

The mark [1] stands for this setting: rat spleen microsomes, average ± standard deviation of replicate experiments, read-out: IC50 HO-1 (rat spleen)/μM.
The mark [2] stands for this setting: rat brain microsomes, average ± standard deviation of replicate experiments, read-out: IC50 HO-2 (rat brain)/μM.

Where a name gives a salt, the structure may show the parent alone. Read-outs that look alike come from different tables or passages of the source. Bounds are passed on as bounds.

With `Clc1ccc(CC[C@@]2(Cn3ccnc3)OC[C@@H](CSc3ccccc3)O2)cc1` [(2R,4S)-2-[2-(4-chlorophenyl)ethyl]-2-[(1H-imidazol-1-yl)methyl]-4-[(phenylthio)methyl]-1,3-dioxolane hydrochloride], the IC50 was found to be 1.03 ± 0.07 µM at HO-1 (rat spleen) (setting [1]) and 34 ± 12 µM on HO-2 (rat brain) (setting [2]).

Regarding `Clc1ccc(CC[C@@]2(Cn3ccnc3)OCC(COc3ccc(Br)cc3)O2)cc1` (stereo in doubt) [(2R,4S)-1-{4-(4-bromo-phenoxymethyl)-2-[2-(4-chloro-phenyl)-ethyl]-[1,3]dioxolan-2-ylmethyl}-1H-imidazole hydrochloride], the results for the IC50 on HO-1 (rat spleen) (setting [1]) and at HO-2 (rat brain) (setting [2]) were 3.5 ± 0.2 µM and 22 ± 8 µM, respectively.

`O=C(/C(=N/O)n1ccnc1)c1ccc(Cl)cc1`: the IC50 on HO-1 (rat spleen) (setting [1]) turned out to be 103 ± 2 µM; at HO-2 (rat brain) (setting [2]) it was 103 ± 41 µM.

Turning to `O=C(Cn1ccnc1)c1ccc2c(c1)CCCC2` [2-imidazol-1-yl-1-(5,6,7,8-tetrahydro-naphthalen-2-yl)-ethanone hydrochloride], the IC50 was 4 ± 1 µM on HO-1 (rat spleen) (setting [1]) and 6.7 ± 0.3 µM at HO-2 (rat brain) (setting [2]).

With `c1ccc(CCCCn2ccnc2)cc1` [1-(4-phenyl-butyl)-1H-imidazole hydrochloride], the IC50 on HO-1 (rat spleen) (setting [1]) is 3.5 ± 0.9 µM; on HO-2 (rat brain) (setting [2]), more than 100 µM.

`c1ccc(SCCCn2ccnc2)cc1` [1-(3-phenylsulfanyl-propyl)-1H-imidazole hydrochloride]: the IC50 came out at 2.4 ± 0.2 µM at HO-1 (rat spleen) (setting [1]) and 16 ± 2 µM on HO-2 (rat brain) (setting [2]).

With `Clc1ccc(C2(Cn3cncn3)OCCO2)cc1` [1-[2-(4-chloro-phenyl)-[1,3]dioxolan-2-ylmethyl]-1H-[1,2,4]triazole], the values for the IC50 on HO-1 (rat spleen) (setting [1]) and at HO-2 (rat brain) (setting [2]) were 68.7 ± 0.6 µM and more than 100 µM, respectively.

With `c1ccc(CCn2ccnc2)cc1` [1-Phenethyl-1H-imidazole], the IC50 on HO-1 (rat spleen) (setting [1]) is 72 ± 11 µM; at HO-2 (rat brain) (setting [2]), more than 100 µM.

In the case of `O=C(Cn1cncn1)c1cc(Cl)ccc1Cl` [1-(2,5-Dichloro-phenyl)-2-[1,2,4]triazol-1-yl-ethanone], the IC50 on HO-1 (rat spleen) (setting [1]) is 18.4 ± 0.5 µM; at HO-2 (rat brain) (setting [2]), more than 100 µM.

Take `c1ccc(SCCn2ccnc2)cc1` [1-(2-phenylsulfanyl-ethyl)-1H-imidazole hydrochloride]: the IC50 is 6 ± 0.1 µM on HO-1 (rat spleen) (setting [1]) and more than 100 µM at HO-2 (rat brain) (setting [2]).

Turning to `c1ccc(Cc2ccc(C3(Cn4ccnc4)OCCO3)cc2)cc1` [1-[2-(4-benzyl-phenyl)-[1,3]dioxolan-2-ylmethyl]-1H-imidazole hydrochloride], the IC50 was 4.98 ± 0.08 µM on HO-1 (rat spleen) (setting [1]) and more than 100 µM on HO-2 (rat brain) (setting [2]).

Turning to `c1ccc2cc(C3(Cn4cncn4)OCCO3)ccc2c1` [1-(2-naphthalen-2-yl-[1,3]dioxolan-2-ylmethyl)-1H-[1,2,4]triazole], the results for the IC50 on HO-1 (rat spleen) (setting [1]) and on HO-2 (rat brain) (setting [2]) were 3.58 ± 0.08 µM and more than 100 µM, respectively.

Turning to `O=C(CCc1ccccc1)Cn1cnc(Br)c1` [1-(4-Bromo-imidazol-1-yl)-4-phenyl-butan-2-one], the IC50 at HO-1 (rat spleen) (setting [1]) and at HO-2 (rat brain) (setting [2]) was more than 100 µM each time.

With `Nc1cccc(SC[C@@H]2CO[C@@](CCc3ccc(Cl)cc3)(Cn3ccnc3)O2)c1` [(2R,4S)-2-[2-(4-chlorophenyl)ethyl]-2-[(1H-imidazol-1-yl)methyl]-4-[{(3-aminophenyl]-4-[{(3-aminophenyl)thio}meth-yl]-1,3-dioxolane hydrochloride], the IC50 on HO-1 (rat spleen) (setting [1]) was 4 ± 2 µM; on HO-2 (rat brain) (setting [2]), 6 ± 1 µM.

As to `Fc1ccc(COC(Cn2ccnc2)c2ccc(-c3ccc(Br)cc3)cc2)cc1` (racemic) [(±)-1-[2-(4′-bromo-biphenyl-4-yl)-2-(4-fluoro-benzyloxy)-ethyl]-1H-imidazole], the IC50 at HO-1 (rat spleen) (setting [1]) is 5 ± 2 µM; on HO-2 (rat brain) (setting [2]), more than 100 µM.

As to `Nc1ccc(SC[C@@H]2CO[C@@](CCc3ccc(Cl)cc3)(Cn3ccnc3)O2)cc1` [(2R,4S)-2-[2-(4-chlorophenyl)ethyl]-2-[(1H-imidazol-1-yl)methyl]-4-[{(4-aminophenyl)thio}meth-yl]-1,3-dioxolane hydrochloride], the IC50 at HO-1 (rat spleen) (setting [1]) was found to be 0.33 ± 0.07 µM; on HO-2 (rat brain) (setting [2]), 8 ± 1 µM.

Regarding `Clc1ccc(CC[C@@]2(Cn3ccnc3)OCC(COc3ccccc3)O2)cc1` (stereo in doubt) [(2R,4S)-1-{2-[2-(4-chloro-phenyl)-ethyl]-4-phenoxymethyl-[1,3]dioxolan-2-ylmethyl}-1H-imidazole hydrochloride], the IC50 on HO-1 (rat spleen) (setting [1]) is 0.59 ± 0.04 µM; on HO-2 (rat brain) (setting [2]), 1.6 ± 0.3 µM.

For the compound `CC(=O)C(Cc1ccc(Cl)cc1)n1ccnc1` (racemic) [(±)-4-(4-chlorophenyl)-3-imidazol-1-yl-butan-2-one hydrochloride], the IC50 against HO-1 (rat spleen) and against HO-2 (rat brain) was more than 100 µM in each case.

For the compound `Clc1ccc(CC[C@@]2(Cn3ccnc3)OC[C@@H](Cn3ccnc3)O2)cc1` [(2R,4R)-2-[2-(4-chlorophenyl)ethyl]-2-[(1H-imidazol-1-yl)methyl]-4-[(1H-imidazol-1-yl)methyl]-1,3-dioxolane dihydrochloride], the IC50 was determined as 10 ± 6 µM on HO-1 (rat spleen) (setting [1]) and 26 ± 3 µM at HO-2 (rat brain) (setting [2]).

As for `COc1ccc(CCN2CCC(Nc3nc4ccccc4[nH]3)CC2)cc1`, the IC50 against HO-1 (rat spleen) and against HO-2 (rat brain) was more than 100 µM in each case.

As for `c1cn(CCCCCCCCn2ccnc2)cn1` [1,8-bis-(1H-imidazol-1-yl)octane dihydrochloride], the IC50 on HO-1 (rat spleen) (setting [1]) and on HO-2 (rat brain) (setting [2]) was more than 100 µM throughout.

Take `c1cn(Cc2ccc(Cn3ccnc3)cc2)cn1` [1-(4-(1H-Imidazol-1-ylmethyl)benzyl)-1H-imidazole dihydrochloride]: the IC50 was 86 ± 30 µM at HO-1 (rat spleen) (setting [1]) and more than 100 µM at HO-2 (rat brain) (setting [2]).

For the compound `O=C(Cn1ccnc1)c1ccc2c(c1)CCC2` [2-imidazol-1-yl-1-indan-5-yl-ethanone hydrochloride], the IC50 on HO-1 (rat spleen) (setting [1]) was found to be 4.6 ± 0.1 µM; on HO-2 (rat brain) (setting [2]) it was 37 ± 9 µM.

`c1ccc(CCCCCn2ccnc2)cc1` [1-(5-phenyl-pentyl)-1H-imidazole hydrochloride]: the IC50 came out at 2.8 ± 0.5 µM at HO-1 (rat spleen) (setting [1]) and 20 ± 15 µM at HO-2 (rat brain) (setting [2]).

On to `OC(CCn1ccnc1)C12CC3CC(CC(C3)C1)C2` (racemic) [(±)-1-adamantan-1-yl-3-imidazol-1-yl-propan-1-ol hydrochloride], for which the IC50 was found to be 2 ± 0.6 µM at HO-1 (rat spleen) (setting [1]) and 6.5 ± 0.1 µM at HO-2 (rat brain) (setting [2]).

For `O=C(Cn1cncn1)c1ccc2c(c1)OCCO2`, the IC50 on HO-1 (rat spleen) (setting [1]) is 18 ± 4 µM; at HO-2 (rat brain) (setting [2]), more than 100 µM.

As to `Brc1ccc(CCC2(Cn3ccnc3)OCCO2)cc1` [2-[2-(4-bromophenyl)ethyl]-2-[(1H-imidazol-1-yl)methyl]-1,3-dioxolane hydrochloride], the IC50 at HO-1 (rat spleen) (setting [1]) is 1.9 ± 0.2 µM; at HO-2 (rat brain) (rat brain microsomes, average ± standard deviation of replicate experiments, hydrochloride, read-out: IC50 HO-2 (rat brain)/μM), more than 100 µM.

Take `OC(Cn1ccnc1)c1ccc(-c2ccc(Br)cc2)cc1` (racemic) [drawing 342, (±)-1-(4′-bromo-biphenyl-4-yl)-2-imidazol-1-yl-ethanol]: the IC50 was 0.06 ± 0.03 µM on HO-1 (rat spleen) (setting [1]) and more than 100 µM at HO-2 (rat brain) (setting [2]).

For the compound `Cc1nccn1CC(=O)CCc1ccc(Cl)cc1.Cl`, the “IC50 HO-1 (rat spleen)/μM” value on HO-1 (rat spleen) (rat spleen microsomes, average ± standard deviation of replicate experiments) is on record as “INACTIVE”. Further, the “IC50 HO-2 (rat brain)/μM” value against HO-2 (rat brain) (rat brain microsomes, average ± standard deviation of replicate experiments) is listed as “INACTIVE”.

As for `c1ccc(CCC2(Cn3cncn3)OCCO2)cc1` [2-(2-phenethyl)-2-{(1H-[1,2,4]triazol-1-yl)methyl}-1,3-dioxolane hydrochloride], the IC50 on HO-1 (rat spleen) (setting [1]) was 13 ± 2 µM; at HO-2 (rat brain) (setting [2]) it was more than 100 µM.

Regarding `c1cn(CCCCc2ccc(CCCCn3ccnc3)cc2)cn1` [1,4-bis[(4-1H-imidazol-1-yl)butyl]benzene dihydrochloride], the IC50 was found to be 0.4 ± 0.1 µM on HO-1 (rat spleen) (setting [1]) and 8 ± 2 µM on HO-2 (rat brain) (setting [2]).

As for `O=C(Cn1cncn1)c1ccc([N+](=O)[O-])cc1` [1-(4-Nitro-phenyl)-2-[1,2,4]triazol-1-yl-ethanone hydrochloride], the IC50 was 19.2 ± 0.5 µM at HO-1 (rat spleen) (setting [1]) and more than 100 µM on HO-2 (rat brain) (setting [2]).

With `O=C(Cn1ccnc1)c1cc(Cl)ccc1Cl` [1-(2,5-dichloro-phenyl)-2-imidazol-1-yl-ethanone hydrochloride], the IC50 at HO-1 (rat spleen) (setting [1]) came out at 6.6 ± 0.2 µM; at HO-2 (rat brain) (setting [2]), 58 ± 10 µM.

In the case of `OC(CCc1ccccc1)Cn1cncn1` (racemic) [(±)-4-phenyl-1-[1,2,4]triazol-1-yl-butan-2-ol hydrochloride], the IC50 at HO-1 (rat spleen) (setting [1]) turned out to be 10.2 ± 0.2 µM; against HO-2 (rat brain), 54 ± 12 µM.

For `CSc1nnn(CC(=O)CCc2ccccc2)n1` [1-(5-Methylsulfanyl-tetrazol-2-yl)-4-phenyl-butan-2-one], the IC50 on HO-1 (rat spleen) (setting [1]) and at HO-2 (rat brain) (setting [2]) was more than 100 µM in each case.

For `c1ccc(OCCn2ccnc2)cc1` [1-(2-phenoxy-ethyl)-1H-imidazole hydrochloride], the IC50 on HO-1 (rat spleen) (setting [1]) is 61 ± 29 µM; at HO-2 (rat brain) (setting [2]) it was more than 100 µM.

Regarding `Clc1ccc(/C(Cn2ccnc2)=N\Nc2ccccc2)cc1`, the IC50 on HO-1 (rat spleen) (setting [1]) and on HO-2 (rat brain) (setting [2]) was more than 100 µM each time.

For `O=C(CCc1ccccc1)Cn1cnc(-c2ccccc2)c1-c1ccccc1` [1-(4,5-Diphenyl-imidazol-1-yl)-4-phenyl-butan-2-one hydrochloride], the IC50 on HO-1 (rat spleen) (setting [1]) was 40 ± 2 µM; on HO-2 (rat brain) (setting [2]), more than 100 µM.
